Earlier results, collected in patent publication US11389398B2, “Gastroretentive treatment of nocturnal symptoms and morning akinesia in subjects with parkinson's disease” (priority 2019, dated 2022).
Read-outs that look alike come from different tables or passages of the source.

N[C@@H](Cc1ccc(O)c(O)c1)C(=O)O [levodopa, 3-hydroxy-L-Tyrosine]
delay in the identification of circulating plasma levodopa levels after meals (controlled release tablets (Contin 1998)): 30 to 75 min
delay in the identification of circulating plasma levodopa levels after meals (immediate release tablets (Baruzzi 1987)): 29 to 60 min
